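Dose response: 5 concentrations. Exposure: 48 h. Format: 96-well plates. Endpoint: linear interpolation; highest concentration if not reached. Abbreviation: GI50, concentration required for 50% inhibition of growth.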 The source made the active and inactive calls. No stated cut-off is given here; in the data, active = GI50 up to about 1.1 µM and inactive = higher.

Holding throughout (assay): growth of human tumour cells (NCI), 48 h
The test system of assay [1] is A498.
Assay [2] deals with EKVX.
Assay [3] relates to HOP-62.
The test system of assay [4] is LOX IMVI.
Assay [5] relates to MOLT-4.
Assay [6] has as its system Malme-3M.
For assay [7], the system named is NCI-H522.
For assay [8], the system named is NCI/ADR-RES.
Assay [9] concerns OVCAR-5.
The subject of assay [10] is PC-3.
The test system of assay [11] is RPMI-8226.
In assay [12] the test system is SF-268.
The subject of assay [13] is SF-295.
Assay [14] deals with SK-MEL-2.
Assay [15] relates to SNB-19.
Assay [16] has as its system SNB-75.
Assay [17] deals with U-251.
The test system of assay [18] is HCT-15.
The test system of assay [19] is OVCAR-4.
The test system of assay [20] is TK-10.

Consider `C[N+]12C=CC=C1C(N1CCCC1)c1scc(-c3ccccc3)c12` (centres undefined), for which the GI50 is 38.5 µM (inactive) in [1]; 14.5 µM (inactive) in assay [2]; 41.7 µM (inactive) in assay [3]; 37.4 µM (inactive) in assay [4]; 19.3 µM (inactive) in [5]; 11.8 µM (inactive) in assay [6]. For the same compound, the GI50 in assay [7] was 3.28 µM (inactive); in [8], > 100 µM (inactive); in assay [9] it was 64.1 µM (inactive); in assay [10] it was 17.1 µM (inactive); in assay [11], 5.92 µM (inactive); in [12] it was 15.6 µM (inactive). In addition, the GI50 in [13] was 44.3 µM (inactive); in assay [14] it was 6.78 µM (inactive); in assay [15], 10.6 µM (inactive); in [16], 3.99 µM (inactive); in assay [17], 5.92 µM (inactive).
For `Oc1ccc(/N=N/c2ccc(Cl)cc2)cc1`, the GI50 in assay [1] is 17.3 µM (inactive); in assay [2], 17.3 µM (inactive); in assay [18], 14.7 µM; in assay [3], 18.4 µM (inactive); in assay [4], 11.9 µM (inactive); in [5], 13.2 µM (inactive). The GI50 in [7] is 11.6 µM (inactive); in assay [8], 18.1 µM (inactive); in assay [19], 14.9 µM (inactive); in assay [9], 17.4 µM (inactive); in [10], 14.9 µM (inactive); in [11], 24.2 µM (inactive). Further, the GI50 in assay [12] is 17.7 µM (inactive); in assay [13], 16.4 µM (inactive); in assay [14], 14.2 µM (inactive); in assay [15], 18 µM (inactive); in [16], 18.9 µM (inactive); in assay [20], 18.1 µM (inactive). Further, the GI50 in assay [17] was 15.4 µM (inactive).
Turning to `CC(=O)O[C@H]1[C@@H](OC2CCCC2(c2ccccc2)c2ccccc2)O[N+]([O-])=C[C@@]12COCc1cc3c(cc12)OCO3` (some centres undefined), the GI50 in assay [1] was 1.99 µM (inactive); in [2] it was 3.02 µM (inactive); in assay [18], 6.37 µM; in assay [3], 2.99 µM (inactive); in [4], 2.72 µM (inactive); in assay [5] it was 2.52 µM (inactive). The GI50 in assay [7] is 1.98 µM (inactive); in assay [8], 3.52 µM (inactive); in assay [19], 1.49 µM (inactive); in assay [9], 18.7 µM (inactive); in assay [10], 4.2 µM (inactive); in [12], 2.87 µM (inactive). Moreover, the GI50 in assay [13] was 5.25 µM (inactive); in assay [14] it was 4.17 µM (inactive); in [15] it was 15.1 µM (inactive); in [16], 4.11 µM (inactive); in assay [20] it was 7.85 µM (inactive); in assay [17], 7.48 µM (inactive).
For `COC(=O)CN1C(=O)C2(C(=O)OC)OC1(c1ccc([N+](=O)[O-])cc1)C1C(=O)N(c3ccccc3)C(=O)C12` (centres undefined), the GI50 is > 100 µM (inactive) in assay [1]; > 100 µM (inactive) in [2]; more than 100 µM in assay [18]; > 100 µM (inactive) in [3]; > 100 µM (inactive) in assay [4]; > 100 µM (inactive) in assay [5]. The GI50 in [6], in assay [7], in assay [8], in assay [19], in [9] and in assay [10] was > 100 µM (inactive) throughout. The GI50 in assay [12], in [13], in assay [14], in [15], in assay [16] and in assay [20] was > 100 µM (inactive) in each case. The GI50 in assay [17] was > 100 µM (inactive).
Take `O=C1/C(=C/c2ccc(Cl)cc2)NC(=S)N1CN1CCCCC1`: the GI50 in assay [1] was 61.5 µM (inactive); in assay [2], 28.2 µM (inactive); in assay [18], 22.6 µM; in assay [3] it was 87.9 µM (inactive); in assay [4], 37.8 µM (inactive); in assay [5], 30.2 µM (inactive). The GI50 was 21.5 µM (inactive) in assay [6]; 18 µM (inactive) in [7]; 19.3 µM (inactive) in assay [8]; 37.5 µM (inactive) in assay [9]; 48.4 µM (inactive) in [10]; 20 µM (inactive) in assay [11]. Further, the GI50 in [12] is 20.5 µM (inactive); in assay [13], 36.9 µM (inactive); in [14] it was 73.1 µM (inactive); in assay [15], 17.7 µM (inactive); in assay [16], 36.3 µM (inactive); in assay [20], 39 µM (inactive). Also, the GI50 in assay [17] was 47.2 µM (inactive).
As to `N=C(N)NCCCC(NC(=O)OCCCCn1ccc(N)nc1=O)C(=O)O` (centres undefined), the GI50 in [1] is > 100 µM (inactive); in assay [2], > 100 µM (inactive); in assay [18], more than 100 µM; in assay [3], > 100 µM (inactive); in [4], > 100 µM (inactive); in assay [5], > 100 µM (inactive). Besides, the GI50 in [8], in assay [19], in assay [9], in assay [10], in assay [11] and in assay [12] was > 100 µM (inactive) throughout. Moreover, the GI50 in [13], in assay [14], in assay [15], in assay [16], in assay [20] and in [17] was > 100 µM (inactive) each time.
Turning to `C=CCN1CCN([C@H](c2ccc(C(=O)N(CC)CC)cc2)c2cccc(OC)c2)CC1`, the GI50 in [1] was > 25 µM (inactive); in assay [2], > 25 µM (inactive); in [18], more than 25 µM; in assay [3], > 25 µM (inactive); in assay [5], > 25 µM (inactive); in assay [6], > 25 µM (inactive). The GI50 in assay [7], in assay [8], in [19], in assay [9], in assay [10] and in [11] was > 25 µM (inactive) in each case. Moreover, the GI50 in assay [12], in assay [13], in assay [14], in [15] and in [17] was > 25 µM (inactive) in each case.
Turning to `CCN(CC)CCCNc1ccc([N+](=O)[O-])c2nc3ccccc3c(N)c12`, the GI50 in [1] is 2.32 µM (inactive); in assay [2], 1.01 µM (active); in assay [18], 0.883 µM; in [3], 5.56 µM (inactive); in assay [4] it was 0.482 µM (active); in [5], 0.302 µM (active). For the same compound, the GI50 in [6] was 2.48 µM (inactive); in [8], 0.668 µM (active); in assay [19] it was 0.627 µM (active); in assay [9], 0.802 µM (active); in assay [10] it was 0.804 µM (active); in [11], 0.555 µM (active). In addition, the GI50 in assay [12] is 1.23 µM (inactive); in assay [13], 0.581 µM (active); in assay [14], 1.14 µM (inactive); in assay [15], 0.929 µM (active); in assay [16], 1.19 µM (inactive); in assay [20], 2.12 µM (inactive).
With `Cc1ccc(O)c(C(c2cc(C)ccc2O)c2cc([N+](=O)[O-])ccc2O)c1`, the GI50 in [1] is 17.2 µM (inactive); in assay [2], 15.2 µM (inactive); in assay [18], 16.3 µM; in [3], 13.4 µM (inactive); in assay [4], 31.7 µM (inactive); in assay [5] it was 6.12 µM (inactive). Besides, the GI50 in assay [7] is 13.2 µM (inactive); in [8] it was 21.1 µM (inactive); in [19], 11.8 µM (inactive); in [9] it was 14.3 µM (inactive); in assay [10], 9.02 µM (inactive); in assay [11], 13.7 µM (inactive). For the same compound, the GI50 in assay [12] was 7.62 µM (inactive); in assay [13], 16.7 µM (inactive); in assay [14], 13.7 µM (inactive); in assay [15], > 10 µM (inactive); in [16] it was 5.46 µM (inactive); in assay [20], 17.4 µM (inactive). Also, in assay [17], the GI50 was 15.7 µM (inactive).
Turning to `O=C1CNC(=O)/C(=C/c2c[nH]c3ccccc23)N1`, the GI50 was > 100 µM (inactive) in assay [1]; > 100 µM (inactive) in assay [2]; more than 100 µM in assay [18]; > 100 µM (inactive) in [3]; > 100 µM (inactive) in assay [4]; > 100 µM (inactive) in assay [5]. Besides, the GI50 is > 100 µM (inactive) in assay [6]; 85.3 µM (inactive) in assay [7]; > 100 µM (inactive) in assay [8]; > 100 µM (inactive) in assay [19]; > 100 µM (inactive) in [9]; > 100 µM (inactive) in assay [10]. Further, the GI50 in assay [11], in assay [12], in assay [13], in assay [14], in [15] and in [20] was > 100 µM (inactive) each time.
Take `Oc1cc(Br)cc2cc(Br)cnc12`: the GI50 is 3.4 µM (inactive) in assay [1]; 3.85 µM (inactive) in assay [2]; 1.13 µM in assay [18]; 12.3 µM (inactive) in assay [3]; 0.661 µM (active) in assay [4]; 2.55 µM (inactive) in [5]. For the same compound, the GI50 was 2.4 µM (inactive) in assay [6]; 2.3 µM (inactive) in assay [7]; 2.72 µM (inactive) in assay [8]; 1.39 µM (inactive) in assay [19]; 3.71 µM (inactive) in assay [10]; 2.63 µM (inactive) in assay [11]. Besides, the GI50 in [12] was 1.1 µM (active); in assay [13], 2.64 µM (inactive); in assay [15], 3.33 µM (inactive); in assay [16], 3.47 µM (inactive); in assay [20], 43 µM (inactive).

The values above are taken from ChEMBL document CHEMBL1201862, “PubChem BioAssay data set” (2004).
